Data reported in BindingDB's records for doi:10.1021/jm8003587 (Tsukuba Research Institute, 2008).

Biological target: T1, Neuropeptide Y receptor type 5 (Homo sapiens, UniProt Q15761)
T1 sequence (Q15761 whole entry): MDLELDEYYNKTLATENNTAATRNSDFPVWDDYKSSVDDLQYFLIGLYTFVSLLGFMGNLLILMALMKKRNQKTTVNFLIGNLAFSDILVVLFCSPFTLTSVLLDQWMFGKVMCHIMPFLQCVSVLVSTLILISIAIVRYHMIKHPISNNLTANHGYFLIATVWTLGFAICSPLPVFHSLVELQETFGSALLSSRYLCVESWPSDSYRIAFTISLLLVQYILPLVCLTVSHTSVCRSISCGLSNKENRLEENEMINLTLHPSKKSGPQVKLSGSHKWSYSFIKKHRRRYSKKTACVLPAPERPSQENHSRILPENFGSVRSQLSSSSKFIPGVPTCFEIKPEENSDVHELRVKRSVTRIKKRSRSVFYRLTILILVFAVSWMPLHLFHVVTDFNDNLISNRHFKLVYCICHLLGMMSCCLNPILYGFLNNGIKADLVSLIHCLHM
Experiment: Displacement of [125I]PYY from human recombinant neuropeptide Y5 receptor expressed in thymidine kinase deficient […] cells

Which Ki does the source give for `COc1cccc2c1C(C1C(=O)CC(C)(C)CC1=O)C1=C(CC(C)(C)CC1=O)O2` (stereo unspecified) [9-(2-Hydroxy-4,4-dimethyl-6-oxocyclohexyl)-8-methoxy-3,3-dimethyl-2,3,4,9-tetrahydro-1H-xanthen-1-one] here?
The Ki was > 1000 nM.
